In article PMC9376946, “Peptide-RNA Coacervates as a Cradle for the Evolution of Folded Domains” (Journal of the American Chemical Society, 2022):

What was measured:
[1] = earlier study, trifluoroethanol titration followed by CD; ref [17]; cited from earlier work
[2] = tested on: polyU; conditions: ref [17]; cited from earlier work
Source text: The basis for the work presented here is the construct Precursor-Arg (PA).[17] PA consists of a single helix-hairpin-helix (HhH) motif and is constructed from an alphabet of only 10 amino acid types. The sequence of PA (Table 1) is biased specifically for those amino acids that were thought to be present on the early earth[35] and is the result of an ancestor sequence reconstruction of the (HhH)2-Fold protein family followed by an experimental deconstruction.[17] PA has two positively charged patches—located at the N-terminus of the first α-helix (residues 1–4, RIRR) and on the second α-helix ... || Using the ColabFold implementation of AlphaFold2,[33] a model of a putative PA dimer was predicted (Figure 1A). […] The dimerization potential of PA was further confirmed by MD simulations (Figure S6). […] This option relies on the dimer having conformations where positive and negative charges are separated, allowing for efficient bidentate binding to the polyU.

[3] = tested on: polyU; assay: Coacervate (droplet) formation with polyU, optical microscopy; assay type: physicochemical
Method: Optical microscopy images of phase-separated samples were taken at the de Picciotto Cancer Cell Observatory Life Sciences Core Facilities (Weizmann Institute of Science) using a 100× objective (oil immersion) on a Leica DMI8 microscope with differential interface contrast. We used 1–2 μL of the sample to make a small drop in an imaging chamber produced by attaching a coverslip to a clean glass slide using a thin strip of double-sided tape (AJ Sign World). Images were processed using the software package Fiji (NIH).
Lyophilized, spin-labeled peptides were dissolved in Milli-Q water and centrifuged at 4000 rpm for 10 min to remove insoluble aggregates. The soluble fractions were used to prepare stock solutions of 250–500 μM peptide. Labeled peptide concentrations were determined by comparing the area under the curve of the EPR signal against that of standard solutions of 10–285 μM TEMPO. For the EPR measurements in D2O, 200 μL of the stock solution was lyophilized and re-dissolved in D2O. The concentration of the unlabeled peptide stock solutions was determined using the bicinchoninic acid assay (Thermo Fisher Scientific) and ranged from 0.8 to 1.2 mM peptide. A stock solution of 500 mM MES, pH 5.6 was used to adjust all samples to a final concentration of 50 mM MES, pH 5.6. Aliquots of 10 mg/mL polyuridylic acid (polyU; Sigma Aldrich) were prepared in Milli-Q water and diluted as necessary. For CW-EPR measurements, a quartz capillary of 0.6 mm i.d. and 0.84 mm o.d. was filled with 7–8 μL of the sample and sealed with Critoseal (Fisherbrand, Fisher Scientific) at one end. A single capillary was placed in an X-band EPR tube of 2 mm i.d. and 2.4 mm o.d. for measurements, except for spin concentration below 50 μM, where two capillaries were used.
Each sample was freshly prepared and the time to collect […] CW-EPR data was 30–40 min.

Sequence: RVRRSEIPLGIELEAGTLRLARRPEIRVA [SA]
- α-helical propensity [1]: lower α-helical propensity than PA
- coacervate formation or precipitation with polyU (earlier study) [2]: precipitates with polyU rather than forms coacervates
- coacervate formation with polyU ([3]; concentrations not given): did not form coacervates with polyU
- coacervate formation with polyU ([3]; unlabeled peptide, 1 mg/mL polyU, aggregation also previously reported, ref [17]): did not form coacervates but rather aggregates
